In patent US6861220B2, “Genetic screening methods” (Ramot University Authority for Applied Research & …, priority 1999, dated 2005):

Tested on: Clone 12 cells (HGPRT-deficient HT1080 fibrosarcoma cells)
Assay: Chemical synthetic lethality screen: retention of HGPRT-tpzGFP survival plasmid (tpzGFP/sphGFP fluorescence ratio) in microplates
Format: cell-based, human
Settings: for detection of chemical synthetic lethality (survival plasmid retention) in blind large-scale test: Clone 12 in 1200 wells, medium lacking selection, chemicals added at random together with guanine (FIG. 9)
Procedure: For pIS, selection in G418 (Calbiochem) was carried out at 400 microg/ml, while maintenance was at 50 microg/ml. For the HGPRT-tpzGFP survival plasmid, selection in hygromycin B (Sigma) was at 150 microg/ml while maintenance was at 50 microg/ml. […] GATA medium was DMEM with 10% dialyzed FCS, plus 3.5 microM guanine-HCI, 0.4 microM aminopterin, 16 microM thymidine and 35 microM adenine.
For fluorescent scanning, cells were trypsinized and distributed at 30,000 cells/well into 96 well microplates (TPP). Growth medium was changed twice a week and plates were grown for up to 75 days. […] Plates were prepared for scanning by replacement of medium in wells with Hank's balanced salt solution without phenol red. […] Plates were scanned with an FL600 microplate fluorescence reader using the KC4 software (Biotek Instruments). Excitation for sphGFP was at 380 nin with a bandpass of 20 nm, while emission was measured at 508 nm with a bandpass of 40 nm.
Excitation of tpzGFP was at 495 nm with a bandpass of 20 mn, while emission was measured at 535 nm with a bandpass of 40 nm. To avoid possible artifacts, all wells within a given experiment were assayed for the fluorescence of the two GFP mutants using fixed sensitivities. Integrated sphGFP was used as an internal control for the number of cells. This was achieved by dividing the relative fluorescence resulting from the episomal tpzGFP vector by the relative fluorescence for sphGFP for each well. This ratio was then divided by the average fluorescence ratio for cells maintained under hygromycin B or HAT selection, resulting in a value representing percent remaining fluorescence for each well as compared to wells maintained under continuous selection. The data points are an average for all wells and the calculated standard deviation. Cells were returned to growth medium immediately following scanning.
Its loss or retention can be determined by measuring its normalized fluorescence in a microplate reader. It was then necessary to test whether these features would enable the tracing of a synthetic lethality condition. […] Under these conditions, normal HGPRT-positive cells can use supplied guanine to produce GMP via the salvage pathway, and survive, while HGPRT-deficient cells die.

Row | Compound | retention of the survival plasmid (Clone 12 cells, 96 well plates, serial dilutions of drug and of guanine, three weeks (FIGS. 7, 8)) | detection of chemical synthetic lethality (survival plasmid retention) in blind large-scale test | retention of the survival plasmid over time (Clone 12 cells, GATA medium + 12.5 microgram/ml MPA, entire time period (FIG. 6)) | retention of the survival plasmid (tpzGFP to sphGFP fluorescence ratio), dose response (Clone 12 cells, GATA medium + MPA at successively higher concentrations, read after two weeks (FIG. 5))
1 | NC(=O)c1ncn([C@@H]2O[C@H](CO)[C@@H](O)[C@H]2O)c1O [mizoribine] | caused retention of the survival plasmid | clearly detected |  | 
2 | COc1c(C)c2c(c(O)c1C/C=C(\C)CCC(=O)O)C(=O)OC2 [MPA, mycophenolic acid] |  | clearly detected | retention of the survival plasmid for the entire time period | caused increasing retention of the survival plasmid
3 | N[C@@H](CN(O)N=O)C(=O)O [alanosine] |  | not retained |  | 
